Entries after “also recorded” stand apart in the source; their conditions may differ. Where a SMILES comes first, the peptide text is derived from it. Bridges are numbered along the chain shown (N, C = ends). [ ]: non-standard residue; d: D form. R8 = C=CCCCCCC[C@@](C)(N)C(=O)O; S5 = C=CCCC[C@](C)(N)C(=O)O
Columns and labels:
[1] = tested on: hematologic cancer cell lines with wild-type p53; assay: Multiplexed cytotoxicity assay: cell proliferation/cytotoxicity (relative cell count), 72 h, cell lines with wild-type p53; format: cell-based; conditions: liquid cancer cells expressing WT p53 protein
[2] = tested on: liquid cancer cell lines with mutant p53; assay: Multiplexed cytotoxicity assay: cell proliferation/cytotoxicity (relative cell count), 72 h, cell lines with mutant p53; format: cell-based
Experimental: The objective of this study was to concurrently evaluate peptide 1-induced cytotoxicity, p21 up-regulation and caspase-3 activation in multiple liquid cancer cell cell lines characterized as having either wild-type or mutated p53 in order to determine whether the cytotoxicity is PD-mediated.
(§1) Cell lines from hematologic liquid cancer cells, characterized for p53 mutant/wild-type status, were seeded into 384-well plates and incubated in a humidified atmosphere of 5% CO2 at 37° C. Peptide 1 was serially diluted and assayed over 10 concentrations, up to 30 μM, in a final assay concentration of 0.1% DMSO. Treatment was added 24 hours post cell seeding, when a time zero untreated cell plate was also generated to determine the number of doublings in the 72 hour assay period. About one hundred cells per well were evaluated, with each test condition run in duplicate wells. After a 72 hour incubation period, cells were fixed and stained with fluorescently labeled antibody and nuclear dye. In the same wells, nuclei were assessed for toxicity (dye uptake) by automated fluorescence microscopy; apoptosis was assayed by elevations in anti-active caspase-3 antibody; and cell cycle arrest was assayed by elevations in anti-p21 monoclonal antibody EA10.
(§2) Cell proliferation was measured by relative cell count, which was expressed as percent of control. […]

[3] = tested on: activated caspase-3; assay: Multiplexed cytotoxicity assay: activated caspase-3 (apoptosis) induction in p53 wild-type hematopoietic cell lines; format: cell-based
Experimental: as §1
(§3) Cell proliferation was measured by relative cell count, which was expressed as percent of control.

[4] = tested on: p21; assay: Multiplexed cytotoxicity assay: p21 induction in p53 wild-type hematopoietic cell lines; format: cell-based
Experimental: as §1

[5] = tested on: BV-173 leukemia cells; assay: Multiplexed cytotoxicity assay: relative cell count in BV-173 cells (wild type p53); format: cell-based; conditions: wild type p53, 72 h
Experimental: as §1, §3
Those that did were most often characterized by significant inductions of both caspase-3 and p21. Results with BV-173 leukemia cells (Table 16) are representative of the typical responses with these cell lines.

[6] = tested on: HEL-92-1-7 leukemia cells; assay: Multiplexed cytotoxicity assay: relative cell count in HEL-92-1-7 cells (mutant p53); format: cell-based; conditions: mutant p53, 72 h
Experimental: as §1, §2
Results with HEL-92-1-7 leukemia cells (Table 17) are representative of the typical responses with these cell lines.

[7] = tested on: MV 4; 11 human leukemia xenograft; assay: MV 4;11 human leukemia (AML) xenograft model, survival; format: in vivo; conditions: mice, 25 mg/kg, six bi-weekly doses
Experimental: In another study, MV 4; 11 human leukemia xenograft model was used in mice to assess the ability of peptide 1 to inhibit tumor growth and improve overall survival in AML, a highly aggressive liquid tumor. In this study, 25 mg/kg dose of peptide 1 was administered in six bi-weekly doses and compared to the results of mice treated with only cyclophosphamide, the control group. Mice were monitored individually for an endpoint of morbidity due to progression of the leukemia. All ten mice that received the control exited the study between days 21 and 28, offering a sensitive assay for activity.

[8] = tested on: plasma protein; assay: In vitro plasma protein binding; format: in vitro ADME, mouse, rat, dog, monkey, human; conditions: for free peptide 1 fraction: human and monkey plasma
Experimental: The in vitro protein binding of peptide 1 was evaluated over a range of concentrations in mouse, rat and monkey plasma, as well as human plasma samples from normal subjects and hypoalbuminemic patients.

[9] = tested on: cryopreserved hepatocytes; assay: In vitro metabolite profile / stability in cryopreserved hepatocytes; format: in vitro ADME, mouse, rat, monkey, and human
Text: (§4) Proteolysis is the major biotransformation pathway of peptide 1. […] The predominant metabolite was also observed in the plasma in both the rat and monkey 4-week GLP toxicology studies, with adequate exposures in these studies to provide characterization of its impact on the overall safety profile of peptide 1. […] Accumulation of the predominant metabolite was not observed with repeated twice-weekly dosing in rats or monkeys.

[10] = Single-dose rat study of metabolism and elimination; format: in vivo
Text: as §4

[11] = Pharmacokinetic/toxicokinetic studies after IV administration in mice, rats and monkeys; format: in vivo
Text: Pharmacokinetic studies characterize exposure kinetics following single IV administrations of peptide 1 in mice, rats and monkeys, including evaluations of two different dosing formulations in rats and monkeys. Using qualified liquid chromatography with tandem mass spectrometry (LC-MS-MS) methods for efficacy models and dose range-finding (DRF) studies, and validated methods for GLP safety studies, absorption was characterized in mice at the MED in efficacy models and in rats and monkeys at tolerated and non-tolerated doses in toxicology studies.

[12] = 4-week rat GLP toxicity study, twice-weekly IV dosing (toxicity and toxicokinetics); format: in vivo, rats
Text: (§5) The 4-week multiple-dose GLP studies in rats and monkeys utilized twice-weekly IV dosing of peptide 1. The studies provided dose- and exposure-related assessments during both dosing and recovery periods, and results were utilized to define the maximum tolerated doses (MTD) and estimate the severely toxic dose for 10% (STD10) of rats and the highest non-severely toxic dose (HNSTD) in monkeys. All gross and microscopic signs of intolerance (e.g., reduced organ weights, sporadic findings of multi-tissue hemorrhage and hepatic necrosis) and changes in serum chemistry parameters were considered as secondary to red blood cell (RBC), platelet and/or white blood cell (WBC) depletions or anorexia and dehydration in both species.

[13] = 4-week monkey GLP toxicity study, twice-weekly IV dosing (toxicity and toxicokinetics); format: in vivo, monkeys
Text: as §5

[14] = tested on: bacterial mutagenicity (Ames); assay: Bacterial mutagenicity (Ames)
Text: (§6) Peptide 1 was negative in genetic toxicology studies, including bacterial mutagenicity (Ames), chromosomal aberrations (human peripheral blood lymphocyte) and in vivo micronucleus (rat bone marrow) assays.

[15] = tested on: rat bone marrow; assay: In vivo micronucleus assay
Text: as §6

[16] = Preclinical GLP safety studies in rodents and monkeys (overall profile); format: in vivo
Text: Genotoxicity, gastrointestinal toxicity, cardiotoxicity, and immunogenicity were not observed.

[17] = tested on: cytochrome P450 (CYP) isoforms; assay: In vitro cytochrome P450 inhibition; format: in vitro ADME
Text: (§7) Inhibition or induction of cytochrome P450 (CYP) enzymes by peptide 1 appears to be negligible at clinically-relevant concentrations, although interactions are possible at high exposures of peptide 1 with drugs that are predominantly cleared by hepatobiliary transporters.
(§8) Based on these findings, the potential of clinically relevant drug-drug interactions for concomitant medications that are cleared through CYP-mediated mechanisms can be low.

[18] = tested on: cytochrome P450 (CYP) enzymes; assay: In vitro cytochrome P450 induction; format: in vitro ADME
Text: as §7, §8

[19] = tested on: human peripheral blood lymphocyte
[20] = in vivo, intravenous, 4-week rat GLP toxicity study, range over doses
[21] = in vivo, intravenous, 4-week monkey GLP toxicity study, range over doses

CC(=O)N[C@@H](CC(C)C)C(=O)N[C@H](C(=O)N[C@@H](Cc1ccccc1)C(=O)N[C@]1(C)CCCCCC/C=C/CCC[C@@](C)(C(=O)N[C@@H](C)C(=O)N[C@@H](C)C(=O)N[C@@H](C)C(=O)N[C@@H](C)C(=O)N[C@@H](C)C(=O)N[C@H](C)C(N)=O)NC(=O)[C@H](CC(C)C)NC(=O)[C@H](CCC(N)=O)NC(=O)[C@H](C)NC(=O)[C@H](Cc2c[nH]c3ccccc23)NC(=O)[C@H](Cc2ccc(O)cc2)NC(=O)[C@H](CCC(=O)O)NC1=O)[C@@H](C)O [peptide 1] (Ac-LTF[R8]EYWAQL[S5]AAAAA[dA]-NH2; staple (E) 4-11)
activity in in vitro liquid cancer cell growth assays [1]: demonstrates activity | activity in in vitro liquid cancer cell growth assays ([2]; cells with mutations of p53): not in cells with mutations of p53 | character of cytotoxicity ([2]; liquid cancer cell lines containing mutated p53): cell cycle arrest without elevated apoptosis | apoptotic response (activated caspase-3) [3]: robust apoptotic responses | induction of p21 [4]: significant induction of p21 | Relative Cell Count (%) Mean ([5]; 3.00E+00 μM): 15.0% | Relative Cell Count (%) Mean ([5]; 3.00E+01 μM): 2.2% | Relative Cell Count (%) Mean ([5]; 3.01E−01 μM): 31.8% | Relative Cell Count (%) Mean ([5]; 3.01E−02 μM): 84.8% | Relative Cell Count (%) Mean ([5]; 3.02E−03 μM): 99.9% | Relative Cell Count (%) Mean ([5]; 9.49E+00 μM): 4.3% | Relative Cell Count (%) Mean ([5]; 9.51E−01 μM): 14.3% | Relative Cell Count (%) Mean ([5]; 9.52E−02 μM): 64.4% | Relative Cell Count (%) Mean ([5]; 9.53E−03 μM): 94.9% | Relative Cell Count (%) Mean ([5]; 9.55E−04 μM): 100.8% | Relative Cell Count (%) Mean ([6]; 3.00E+00 μM): 79.2% | Relative Cell Count (%) Mean ([6]; 3.00E+01 μM): 67.9% | Relative Cell Count (%) Mean ([6]; 3.01E−01 μM): 77.8% | Relative Cell Count (%) Mean ([6]; 3.01E−02 μM): 89.8% | Relative Cell Count (%) Mean ([6]; 3.02E−03 μM): 96.8% | Relative Cell Count (%) Mean ([6]; 9.49E+00 μM): 76.9% | Relative Cell Count (%) Mean ([6]; 9.51E−01 μM): 81.9% | Relative Cell Count (%) Mean ([6]; 9.52E−02 μM): 89.7% | Relative Cell Count (%) Mean ([6]; 9.53E−03 μM): 98.2% | Relative Cell Count (%) Mean ([6]; 9.55E−04 μM): 98.5% | median overall survival [7]: 40 days | free peptide 1 fraction ([8]; concentrations >200 μM): 12-14% | free peptide 1 fraction ([8]; concentrations up to 150 μM): 3-4% | fraction unbound ([8]; mouse and rat plasma up 250 µM): < 0.02 | fraction unbound ([8]; mouse, rat, dog, monkey, human, plasma of mice, rats, dogs, monkeys, and humans): 0.02 to 0.08 | major biotransformation pathway ([9]; in vitro, across species): Proteolysis | metabolite profile across species ([9]; mouse, rat, monkey, and human cryopreserved hepatocytes): same metabolite profile | predominant clearance pathway [10]: hepatobiliary metabolism and elimination | dose proportionality of exposure ([11]; rats and monkeys): increased proportionally with dose | sex-based differences in PK ([11]; rats and monkeys): No significant sex-based differences | accumulation following multiple doses ([11]; rats and monkeys, twice-weekly schedule): no accumulation | accumulation of the predominant metabolite ([11]; repeated twice-weekly dosing in rats or monkeys): not observed | Cmax [12, 20]: 49.9 to 186 µg/mL | clearance [12, 20]: 0.32 to 0.472 mL/min/kg | AUC(0-inf) ([12]; in vivo, intravenous, 4-week rat GLP toxicity study, range over doses, read-out: AUC0-∞): 90.5 to 562 µg·h/mL | AUC(0-inf) ([12]; in vivo, intravenous, rat, 10 mg/kg, read-out: AUC0-∞ at rat STD10): 562 µg·h/mL | predominant metabolite exposure relative to peptide 1 AUC ([12]; rat, 4-week GLP toxicology study): 6% | dose proportionality of Cmax and AUC ([12]; rats): linear, dose-proportional increases | STD10 (severely toxic dose for 10%) ([12]; rats, twice-weekly IV, 4 weeks): 10 mg/kg | exposure at the high-dose group ([13]; 20 mg/kg, 4-week monkey GLP toxicity study): apparent plateau in exposure | platelet response ([13]; 4-week monkey GLP toxicity study, different dosings): dose-dependent decreases in platelets with recovery | Cmax [13, 21]: 133 to 562 µg/mL | clearance [13, 21]: 0.108 to 0.23 mL/min/kg | half-life [13, 21]: 3.7 to 6 h | AUC(0-inf) ([13]; in vivo, intravenous, 4-week monkey GLP toxicity study, range over doses, read-out: AUC0-∞): 813 to 1600 µg·h/mL | AUC(0-inf) ([13]; in vivo, intravenous, monkey, 5 mg/kg, read-out: AUC0-∞ at HNSTD in monkeys): 813 µg·h/mL | predominant metabolite plasma exposure relative to AUC ([13]; monkey, 4-week GLP toxicology study): 10% | significant thrombocytopenia ([13]; monkeys, lowest dose level 5 mg/kg): complete lack of significant thrombocytopenia | significant thrombocytopenia ([13]; monkeys, mid- and high-dose levels): only one animal | HNSTD (highest non-severely toxic dose) ([13]; monkeys, twice-weekly IV, 4 weeks): 5 mg/kg | dose proportionality of exposure ([13]; non-human primates): increased proportionally with dose | bacterial mutagenicity (Ames) [14]: negative | in vivo micronucleus [15]: negative | Genotoxicity [16]: not observed | Histopathology [16]: bone marrow hypocellularity consistent with mild to moderate myelosuppression | cardiotoxicity [16]: not observed | gastrointestinal toxicity [16]: not observed | immunogenicity [16]: not observed | inhibition of cytochrome P450 (CYP) isoforms [17]: negligible; also recorded: not an inhibitor | induction of cytochrome P450 (CYP) enzymes [18]: negligible; also recorded: did not indicate any significant treatment-related effects | chromosomal aberrations [19]: negative

Source: patent US20190256559A1, “PEPTIDOMIMETIC MACROCYCLES AND USES THEREOF” (AILERON THERAPEUTICS, INC., priority 2015, published 2019)
